Data reported in the METLIN SMRT retention time set (Domingo-Almenara et al. 2019).

Experiment: gradient 5% acetonitrile 3 min, to 50% in 2 min, to 85% in 15 min, held 3 min, 100 µL/min
Conditions: column: Zorbax Extend-C18 2.1 x 50 mm; eluents: water / acetonitrile, 0.1% formic acid
Method in brief: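 Retention time was recorded from adduct peaks, which were picked computationally and each inspected manually. Pure standards ran in mixtures of ~100 molecules on HPLC coupled to a quadrupole time-of-flight mass spectrometer, in positive and negative ionization mode, through a Zorbax Extend-C18 column (2.1 × 50 mm, 1.8 μm) at 100 μL/min. Eluents were water and acetonitrile, each with 0.1% formic acid.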

| Structure (SMILES) | RP-LC retention time [s] |
| --- | --- |
| CCN1CCCn2cc(S(=O)(=O)Nc3ccccc3F)cc2C1=O | 687 |
| CCOC(=O)c1c(C)n(CCNC(C)=O)c2cc(Br)c(OC)cc12 | 706 |
| Cc1cccc(N2CCN(C(=O)C3CCN(S(=O)(=O)c4cccc5nsnc45)CC3)CC2)c1C | 1050 |
| N#Cc1ccc(-n2cnc(C(=O)Nc3cccc(C(F)(F)F)c3)c2)cc1 | 889 |
| O=C(c1ccc(Br)o1)N1CCC(c2cnn(-c3cccc(F)c3)c2)CC1 | 1000 |
| COc1ccc(-c2noc(Cc3nnc(-c4cc(C)cc(C)c4)o3)n2)cc1 | 1110 |
| COc1ccc(NS(=O)(=O)c2cn(C)c3ncccc23)cc1 | 740 |
| Cc1ccccc1OCc1nc(-c2cccc(-c3ccnn3C)c2)no1 | 1130 |
| O=C(NCc1ccc2c(c1)OCO2)c1ccc2c(cnn2CC(=O)N2CCCCCC2)c1 | 766 |
| O=S(=O)(c1ccccc1)N1CCC(Cc2nncn2-c2ccccc2)C1 (stereo not drawn) | 709 |
| Cc1c(C(=O)N2CCN(C(=O)c3ccco3)CC2)[nH]c2ccccc12 | 729 |
| O=C(CSc1cc(N2CCN(c3ccccc3F)CC2)ncn1)Nc1ccccc1F | 1190 |
| COc1cc2nc(SCC(=O)Nc3cc(C)[nH]n3)n3nc(C)nc3c2cc1OC | 605 |
| O=C(Nc1nnc(Cc2cccs2)o1)c1ccc(S(=O)(=O)N2CCOCC2)cc1 | 691 |
| CCN(CC)C(=O)CN1C(=O)C2CCCCN2c2ccc(S(=O)(=O)N3CCCC3)cc21 (stereo not drawn) | 832 |
| CCCNC(=O)N1CCCC(c2nn[nH]n2)C1 (stereo not drawn) | 590 |
| Clc1cccc(-c2noc(Cc3nnc(-c4ccccc4)o3)n2)c1 | 1070 |
| CCCc1nnsc1C(=O)Nc1ccc2c(c1)CN(C(=O)c1ccco1)CC2 | 786 |
| COc1cccc(CN2C[C@@H](CO)[C@H](c3nc(C4CC4)no3)C2)n1 | 618 |
| CC(C)Cn1cc(CCNC(=O)Nc2ccc(F)c(Cl)c2)c2cccnc21 | 912 |
| CN(C)S(=O)(=O)c1ccc2c(c1)N(CC(=O)NCCc1cccs1)C(=O)C1CCCCN21 (stereo not drawn) | 876 |
| CC(C)c1noc(-c2ccc(-n3cnc(C(=O)Nc4ccc(F)cc4)c3)nc2)n1 | 1020 |
| COc1cccc(-c2noc(Cn3c(=O)n(-c4ccc(Cl)cc4)c(=O)c4sccc43)n2)c1 | 1050 |

| Structure (SMILES) | RP-LC retention time [s] |
| --- | --- |
| CCCn1c(-c2cccc(C(=O)NC(CC)c3cccs3)c2)nc2cccnc21 (stereo not drawn) | 886 |
| Cc1ccc(-n2c(C)c(C)c3c(=O)n(CC(=O)N(C)Cc4ccco4)cnc32)cc1 | 907 |
| CC1CCN(S(=O)(=O)c2ccc(-c3nnc(C4CC4)o3)o2)CC1 | 933 |
| Cc1nc2ncnn2c(N2CCCC2)c1C | 648 |
| O=C(CSc1ncnc2c1cnn2-c1ccc(Cl)cc1)Nc1ccc(F)cc1F | 750 |
| COCCCNC(=O)C1c2ccccc2C(=O)N(C2CCCC2)C1c1cccs1 (stereo not drawn) | 836 |
| COCCNC(=O)c1nn(-c2ccc(Cl)cc2)nc1CO | 792 |
| NC(=O)C1CCN(C(=O)CCCn2c(=O)c3cccn3c3ccc(Br)cc32)CC1 | 685 |
| CN(C)S(=O)(=O)c1ccc(-c2nnc(C(=O)NCc3ccccc3Cl)o2)cc1 | 894 |
| CCC1Oc2ccc(S(=O)(=O)N3CCC(C(=O)NCc4ccccc4C)CC3)cc2NC1=O (stereo not drawn) | 872 |
| Cc1cc(NC(=O)Cn2ccn3nc(-c4ccccc4)c(CO)c3c2=O)ccc1Br | 917 |
| CCOc1cccc(=O)c2c(C)n(-c3nc(-c4ccc(OC)cc4)c(C)s3)c(C)c12 | 1160 |
| O=C(COc1ccccc1)Nc1cnc(N2CCCCCC2)nc1 | 941 |
| Cn1c(-c2ccccc2)nn(CCNC(=O)C2COc3ccccc3O2)c1=O (stereo not drawn) | 702 |
| CCc1nnc(C2CN(C)CC23CCN(S(=O)(=O)c2cccc(Cl)c2)CC3)o1 (stereo not drawn) | 645 |
| Cc1ccc(CN2C[C@@H]3C(=O)N(CCCN4CCCC4=O)C(=O)[C@@H]3C2)cc1 | 589 |
| COc1cccc(CNC(=O)C2(C)CCCN(C(=O)Nc3cc(OC)ccc3OC)C2)c1 (stereo not drawn) | 844 |
| O=C(Cc1ccc(F)cc1)Nc1cc(-c2cccs2)no1 | 926 |
| CN1C(=O)C2(CCN(C(=O)c3ccc(C#N)cc3)C2)c2ccccc21 (stereo not drawn) | 725 |
| CCCN(CC1CCOC1)C(=O)c1cccc(Cl)c1 (stereo not drawn) | 814 |
| O=C1CS(=O)C2(CCNCC2)N1Cc1cccc(F)c1 (stereo not drawn) | 566 |
| COc1ccc(F)cc1S(=O)(=O)N1CCc2nn(C)c(=O)n2CC1 | 673 |
| CCCN1C(=O)Cc2ccccc2C1C(=O)N1CCOCC1 (stereo not drawn) | 650 |

| Structure (SMILES) | RP-LC retention time [s] |
| --- | --- |
| Cc1ccc(-c2ccc3nn(CC(=O)NC4CCCCC4)c(=O)n3n2)cc1C | 792 |
| COc1ccc(CC(C)(O)CNC(=O)Nc2ccccc2OC)cc1 (stereo not drawn) | 750 |
| O=C(Nc1ccc(-c2ccno2)cc1)C1CCN(C(=O)C2Sc3ccccc3NC2=O)CC1 (stereo not drawn) | 766 |
| Cc1ccc(Nc2c(-c3ccc(O)cc3)nc3cc(C)ccn23)cc1 | 696 |
| CCNC(=O)Cc1nnc(-c2cccc(F)c2)o1 | 656 |
| COc1ccc(-c2coc3cc(OCc4ccc([N+](=O)[O-])cc4)ccc3c2=O)cc1OC | 991 |
| Cc1ccccc1CNC(=O)c1nnc(-c2ccc(S(=O)(=O)N3CCC(C)CC3)cc2)o1 | 1100 |
| COc1ccc(-c2nnc(CC(=O)N3CCCC3)o2)cc1 | 677 |
| CC(C)CN1CCN(Cc2nc(-c3ccc(N4CCSCC4)nc3)no2)CC1 | 635 |
| COC(=O)c1ccc(Cl)cc1NC(=O)N1CCN(C)c2ccccc21 | 1240 |
| CNC(=O)c1nsc(C(=O)OC)c1N | 677 |
| Cc1cc(=O)n(CC(=O)Nc2cccc(C#N)c2)c(-c2ccc(F)cc2)n1 | 995 |
| CCc1ccc(CNC(=O)c2cc3ccncc3n2C)cc1 | 648 |
| O=C(NC1CCCC1)C1CCCN(c2ncnc3c2oc2ccccc23)C1 (stereo not drawn) | 713 |
| Cn1cnc2c(C(=O)NC3CCCCC3)nn(-c3cccc(Cl)c3)c2c1=O | 975 |
| Cc1ccc(CNC(=O)Nc2cccc(-c3ccc(N4CCC(C)CC4)nn3)c2)cc1 | 784 |
| Cc1n[nH]c(C)c1S(=O)(=O)N1CCC(c2nnc(C3CC3)s2)CC1 | 623 |
| COc1nccnc1N1CCC(NC(=O)Cc2cccnc2)C1 (stereo not drawn) | 556 |
| O=C(c1ccsc1)N1CC(c2noc(C3CCCN3CC3CC3)n2)C1 (stereo not drawn) | 590 |
| CCOC(=O)c1ccc2nc(C(F)(F)F)nc(NCCCN3CCCC3=O)c2c1 | 876 |
| COC(=O)Cn1c(C)cc(=O)c2cccc(F)c21 | 549 |
| Cc1cc(N2CCN(C(=O)Nc3cccc(C(F)(F)F)c3)CC2)nc(N2CCOCC2)n1 | 675 |
